Assay results reported in ChEMBL document CHEMBL6153174, “Design and Synthesis of Novel Deazapurine DNMT 1 Inhibitors with In Vivo Efficacy in DLBCL” (J Med Chem, 2025).
One block for each compound: values may come before it. Activity calls are given as the source filed them. The rule behind the calls is not given here.

Legend:
MV4-11 = assay: Antiproliferative activity against human MV4-11 cells assessed as inhibition of cell viability measured after 72 hrs by MTT assay; type: functional, cell-based; conditions: MV4-11, 72 h
[1] = Clearance in Sprague-Dawley rat at 10 mg/kg, iv measured upto 24 hrs by LC/MS/MS analysis; type: ADME, organism-based; conditions: in vivo
[2] = molecular target: T1, DNA (cytosine-5)-methyltransferase 3A (Homo sapiens, UniProt Q9Y6K1); assay: Inhibition of DNMT3A (unknown origin) preincubated for 15 mins followed by substrate and [3H-SAM] addition and measured after 60 mins by microbeta analysis
[3] = Apparent clearance during terminal phase in Sprague-Dawley rat at 10 mg/kg, po measured upto 24 hrs by LC/MS/MS analysis; type: ADME, organism-based; conditions: in vivo, read-out: CLz/F (converted)
[4] = Volume of distribution at steady state in Sprague-Dawley rat at 10 mg/kg, iv measured upto 24 hrs by LC/MS/MS analysis; type: ADME, organism-based; conditions: in vivo, read-out: Vdss
U-937 = assay: Antiproliferative activity against human U-937 cells assessed as inhibition of cell viability measured after 72 hrs by MTT assay; type: functional, cell-based; conditions: U-937, 72 h
[5] = AUC (0 to t) in Sprague-Dawley rat at 10 mg/kg, po measured upto 24 hrs by LC/MS/MS analysis; type: ADME, organism-based; conditions: Sprague-Dawley, in vivo
[6] = Terminal elimination half life in Sprague-Dawley rat at 10 mg/kg, po measured upto 24 hrs by LC/MS/MS analysis; type: ADME, organism-based; conditions: in vivo, read-out: beta t1/2 (converted)
[7] = molecular target: T2, DNA (cytosine-5)-methyltransferase 1 (Homo sapiens, UniProt P26358); assay: Inhibition of DNMT1 (unknown origin) at 5 uM preincubated for 15 mins followed by substrate and [3H-SAM] addition and measured after 60 mins by microbeta analysis relative to control; conditions: time 75.0 min
[8] = Cmax in Sprague-Dawley rat at 10 mg/kg, iv measured upto 24 hrs by LC/MS/MS analysis; type: ADME, organism-based; conditions: in vivo
[9] = Volume of distribution at steady state in Sprague-Dawley rat at 10 mg/kg, po measured upto 24 hrs by LC/MS/MS analysis; type: ADME, organism-based; conditions: in vivo
[10] = Cmax in Sprague-Dawley rat at 10 mg/kg, po measured upto 24 hrs by LC/MS/MS analysis; type: ADME, organism-based; conditions: in vivo
[11] = molecular target: T3, DNA (cytosine-5)-methyltransferase 3B (Homo sapiens, UniProt Q9UBC3); assay: Inhibition of DNMT3B (unknown origin) preincubated for 15 mins followed by substrate and [3H-SAM] addition and measured after 60 mins by microbeta analysis
[12] = molecular target: T4, Histone-lysine N-methyltransferase EHMT2 (Homo sapiens) (UniProt Q96KQ7); assay: Inhibition of G9a (unknown origin) at 5 uM preincubated for 15 mins followed by substrate and [3H-SAM] addition and measured after 60 mins by microbeta analysis relative to control; conditions: time 75.0 min
T4 sequence (whole entry): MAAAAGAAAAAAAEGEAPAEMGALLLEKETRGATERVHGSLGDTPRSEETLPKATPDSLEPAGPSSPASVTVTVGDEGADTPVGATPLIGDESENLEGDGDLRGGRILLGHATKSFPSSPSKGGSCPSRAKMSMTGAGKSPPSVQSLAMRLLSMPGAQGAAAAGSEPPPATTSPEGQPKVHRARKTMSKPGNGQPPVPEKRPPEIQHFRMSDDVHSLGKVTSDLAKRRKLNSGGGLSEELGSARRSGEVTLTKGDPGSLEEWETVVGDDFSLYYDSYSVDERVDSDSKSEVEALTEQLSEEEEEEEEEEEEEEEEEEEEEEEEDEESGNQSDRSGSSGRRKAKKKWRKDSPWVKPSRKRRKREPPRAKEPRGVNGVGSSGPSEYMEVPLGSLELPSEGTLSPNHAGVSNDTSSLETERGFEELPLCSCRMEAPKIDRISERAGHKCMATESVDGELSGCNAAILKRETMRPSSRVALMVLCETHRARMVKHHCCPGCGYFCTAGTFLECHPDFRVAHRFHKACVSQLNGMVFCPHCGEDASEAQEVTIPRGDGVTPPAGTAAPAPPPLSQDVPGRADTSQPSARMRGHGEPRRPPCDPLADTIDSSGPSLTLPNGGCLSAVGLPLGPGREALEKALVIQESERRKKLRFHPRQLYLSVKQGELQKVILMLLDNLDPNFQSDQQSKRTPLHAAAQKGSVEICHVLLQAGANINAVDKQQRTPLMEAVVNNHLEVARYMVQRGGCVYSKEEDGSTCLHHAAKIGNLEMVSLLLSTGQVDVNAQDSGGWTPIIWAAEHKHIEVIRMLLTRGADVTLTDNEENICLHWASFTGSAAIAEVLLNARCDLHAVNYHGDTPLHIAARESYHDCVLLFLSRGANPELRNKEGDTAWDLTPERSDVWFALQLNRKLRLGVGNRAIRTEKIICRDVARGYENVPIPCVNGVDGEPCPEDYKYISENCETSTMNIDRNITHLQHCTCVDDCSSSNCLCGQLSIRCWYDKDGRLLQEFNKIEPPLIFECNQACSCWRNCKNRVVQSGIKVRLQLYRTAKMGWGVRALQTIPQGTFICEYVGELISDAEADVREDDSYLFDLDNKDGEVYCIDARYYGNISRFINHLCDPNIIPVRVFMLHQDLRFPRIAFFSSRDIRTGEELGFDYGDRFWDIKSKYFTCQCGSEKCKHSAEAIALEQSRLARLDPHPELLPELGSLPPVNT

[13] = molecular target: T1, DNA (cytosine-5)-methyltransferase 3A; assay: Inhibition of DNMT3A (unknown origin) at 5 uM preincubated for 15 mins followed by substrate and [3H-SAM] addition and measured after 60 mins by microbeta analysis relative to control; conditions: time 75.0 min
[14] = Terminal elimination half life in Sprague-Dawley rat at 10 mg/kg, iv measured upto 24 hrs by LC/MS/MS analysis; type: ADME, organism-based; conditions: in vivo, read-out: beta t1/2 (converted)
[15] = Oral bioavailability in Sprague-Dawley rat at 10 mg/kg measured upto 24 hrs by LC/MS/MS analysis; type: ADME, organism-based; conditions: Sprague-Dawley, in vivo
[16] = AUC (0 to t) in Sprague-Dawley rat at 10 mg/kg, iv measured upto 24 hrs by LC/MS/MS analysis; type: ADME, organism-based; conditions: Sprague-Dawley, in vivo
[17] = Antitumor activity against human TMD8 cells harbouring TP53 mutant xenografted in mouse model assessed as body weight change at 12.5 mg/kg, po QD relative to control; type: functional
[18] = Antitumor activity against human TMD8 cells harbouring […] xenografted in mouse model assessed as tumor inhibition rate at 12.5 mg/kg, po QD relative to control; type: functional; parameters: scale not given: the % may be the effect or the level left
[19] = Antitumor activity against human TMD8 cells harbouring TP53 mutant xenografted in mouse model assessed as tumor inhibition rate at 12.5 mg/kg, po QD relative to control; type: functional; parameters: scale not given: the % may be the effect or the level left
[20] = Antitumor activity against human TMD8 cells harbouring […] xenografted in mouse model assessed as body weight change at 12.5 mg/kg, po QD relative to control; type: functional
[21] = molecular target: T2, DNA (cytosine-5)-methyltransferase 1; assay: Inhibition of DNMT1 (unknown origin) at 1 uM preincubated for 15 mins followed by substrate and [3H-SAM] addition and measured after 60 mins by microbeta analysis relative to control; conditions: time 75.0 min
U2932 = assay: Antiproliferative activity against human U2932 cells assessed as inhibition of cell viability measured after 72 hrs by MTT assay; type: functional, cell-based; conditions: U2932, 72 h
DOHH-2 = assay: Antiproliferative activity against human DOHH-2 cells assessed as inhibition of cell viability measured after 72 hrs by MTT assay; type: functional, cell-based; conditions: DOHH-2, 72 h
Jurkat = assay: Antiproliferative activity against human Jurkat cells assessed as inhibition of cell viability measured after 72 hrs by MTT assay; type: functional, cell-based
[22] = molecular target: T2, DNA (cytosine-5)-methyltransferase 1; assay: Inhibition of DNMT1 in human DOHH-2 cells assessed as inhibition of 5-methylcytosine level at 10 to 1000 nM incubated for 48 hrs by Western blot analysis; type: cell-based; conditions: dose 10-1000 nM
[23] = molecular target: T2, DNA (cytosine-5)-methyltransferase 1; assay: Inhibition of DNMT1 in human DOHH-2 cells assessed as inhibition of H3K9 methylation level incubated for 48 hrs by Western blot analysis; type: cell-based; conditions: dose 10-1000 nM
[24] = molecular target: T2, DNA (cytosine-5)-methyltransferase 1; assay: Inhibition of DNMT1 in human DOHH-2 cells assessed as inhibition of DNA methylation incubated for 48 hrs by Western blot analysis; type: cell-based; conditions: dose 10-1000 nM
TMD8 = assay: Antiproliferative activity against human TMD8 cells assessed as inhibition of cell viability measured after 72 hrs by MTT assay; type: functional, cell-based; conditions: TMD8, 72 h
HT-29 = assay: Antiproliferative activity against human HT-29 cells assessed as inhibition of cell viability measured after 72 hrs by MTT assay; type: functional, cell-based; conditions: HT-29, 72 h
HeLa = assay: Antiproliferative activity against human HeLa cells assessed as inhibition of cell viability measured after 72 hrs by MTT assay; type: functional, cell-based
HepG2 = assay: Antiproliferative activity against human HepG2 cells assessed as inhibition of cell viability measured after 72 hrs by MTT assay; type: functional, cell-based; conditions: HepG2, 72 h
MOLM-13 = assay: Antiproliferative activity against human MOLM-13 cells assessed as inhibition of cell viability measured after 72 hrs by MTT assay; type: functional, cell-based; conditions: MOLM-13, 72 h
NCI-H1299 = assay: Antiproliferative activity against human NCI-H1299 cells assessed as inhibition of cell viability measured after 72 hrs by MTT assay; type: functional, cell-based; conditions: NCI-H1299, 72 h
RPMI-8226 = assay: Antiproliferative activity against human RPMI-8226 cells assessed as inhibition of cell viability measured after 72 hrs by MTT assay; type: functional, cell-based; conditions: RPMI-8226, 72 h
A549 = assay: Antiproliferative activity against human A549 cells assessed as inhibition of cell viability measured after 72 hrs by MTT assay; type: functional, cell-based; conditions: A549, 72 h
MDA-MB-231 = assay: Antiproliferative activity against human MDA-MB-231 cells assessed as inhibition of cell viability measured after 72 hrs by MTT assay; type: functional, cell-based; conditions: MDA-MB-231, 72 h
THP-1 = assay: Antiproliferative activity against human THP-1 cells assessed as inhibition of cell viability measured after 72 hrs by MTT assay; type: functional, cell-based; conditions: THP-1, 72 h
HCT-116 = assay: Antiproliferative activity against human HCT-116 cells assessed as inhibition of cell viability measured after 72 hrs by MTT assay; type: functional, cell-based; conditions: HCT-116, 72 h
[25] = molecular target: T2, DNA (cytosine-5)-methyltransferase 1; assay: Inhibition of DNMT1 (unknown origin) preincubated for 15 mins followed by substrate and [3H-SAM] addition and measured after 60 mins by microbeta analysis
[26] = molecular target: T5, Histone-lysine N-methyltransferase EHMT2 (Homo sapiens, UniProt Q96KQ7); assay: Inhibition of G9a (unknown origin) preincubated for 15 mins followed by substrate and [3H-SAM] addition and measured after 60 mins by microbeta analysis
T5 sequence (Q96KQ7 whole entry): T4 sequence (whole entry)

[27] = molecular target: T3, DNA (cytosine-5)-methyltransferase 3B; assay: Inhibition of DNMT3B (unknown origin) at 5 uM preincubated for 15 mins followed by substrate and [3H-SAM] addition and measured after 60 mins by microbeta analysis relative to control; conditions: time 75.0 min

T1 sequence (Q9Y6K1 whole entry, looked up): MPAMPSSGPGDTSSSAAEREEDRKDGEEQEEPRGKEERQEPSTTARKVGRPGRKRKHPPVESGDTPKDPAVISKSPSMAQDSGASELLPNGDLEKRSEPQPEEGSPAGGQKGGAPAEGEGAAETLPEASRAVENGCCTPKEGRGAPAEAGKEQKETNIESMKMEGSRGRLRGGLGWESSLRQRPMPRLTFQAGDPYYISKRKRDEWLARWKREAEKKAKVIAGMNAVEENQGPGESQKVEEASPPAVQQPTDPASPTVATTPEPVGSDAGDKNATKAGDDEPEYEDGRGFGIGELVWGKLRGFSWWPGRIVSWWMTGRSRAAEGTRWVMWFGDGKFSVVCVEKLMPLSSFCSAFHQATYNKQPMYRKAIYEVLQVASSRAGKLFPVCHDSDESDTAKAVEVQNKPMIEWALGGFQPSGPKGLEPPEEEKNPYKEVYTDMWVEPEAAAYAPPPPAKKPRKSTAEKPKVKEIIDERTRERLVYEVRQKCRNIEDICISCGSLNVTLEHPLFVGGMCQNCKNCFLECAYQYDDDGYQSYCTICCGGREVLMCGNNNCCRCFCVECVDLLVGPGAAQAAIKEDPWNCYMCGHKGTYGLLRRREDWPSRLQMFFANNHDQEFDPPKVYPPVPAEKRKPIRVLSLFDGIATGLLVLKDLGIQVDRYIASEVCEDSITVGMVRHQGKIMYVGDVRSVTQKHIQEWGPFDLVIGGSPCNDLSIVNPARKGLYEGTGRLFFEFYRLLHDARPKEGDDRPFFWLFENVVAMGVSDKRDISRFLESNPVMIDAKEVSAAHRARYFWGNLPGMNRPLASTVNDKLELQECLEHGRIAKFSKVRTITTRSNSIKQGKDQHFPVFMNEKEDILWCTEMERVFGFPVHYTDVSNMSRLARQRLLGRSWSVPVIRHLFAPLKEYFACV
T2 sequence (P26358 whole entry): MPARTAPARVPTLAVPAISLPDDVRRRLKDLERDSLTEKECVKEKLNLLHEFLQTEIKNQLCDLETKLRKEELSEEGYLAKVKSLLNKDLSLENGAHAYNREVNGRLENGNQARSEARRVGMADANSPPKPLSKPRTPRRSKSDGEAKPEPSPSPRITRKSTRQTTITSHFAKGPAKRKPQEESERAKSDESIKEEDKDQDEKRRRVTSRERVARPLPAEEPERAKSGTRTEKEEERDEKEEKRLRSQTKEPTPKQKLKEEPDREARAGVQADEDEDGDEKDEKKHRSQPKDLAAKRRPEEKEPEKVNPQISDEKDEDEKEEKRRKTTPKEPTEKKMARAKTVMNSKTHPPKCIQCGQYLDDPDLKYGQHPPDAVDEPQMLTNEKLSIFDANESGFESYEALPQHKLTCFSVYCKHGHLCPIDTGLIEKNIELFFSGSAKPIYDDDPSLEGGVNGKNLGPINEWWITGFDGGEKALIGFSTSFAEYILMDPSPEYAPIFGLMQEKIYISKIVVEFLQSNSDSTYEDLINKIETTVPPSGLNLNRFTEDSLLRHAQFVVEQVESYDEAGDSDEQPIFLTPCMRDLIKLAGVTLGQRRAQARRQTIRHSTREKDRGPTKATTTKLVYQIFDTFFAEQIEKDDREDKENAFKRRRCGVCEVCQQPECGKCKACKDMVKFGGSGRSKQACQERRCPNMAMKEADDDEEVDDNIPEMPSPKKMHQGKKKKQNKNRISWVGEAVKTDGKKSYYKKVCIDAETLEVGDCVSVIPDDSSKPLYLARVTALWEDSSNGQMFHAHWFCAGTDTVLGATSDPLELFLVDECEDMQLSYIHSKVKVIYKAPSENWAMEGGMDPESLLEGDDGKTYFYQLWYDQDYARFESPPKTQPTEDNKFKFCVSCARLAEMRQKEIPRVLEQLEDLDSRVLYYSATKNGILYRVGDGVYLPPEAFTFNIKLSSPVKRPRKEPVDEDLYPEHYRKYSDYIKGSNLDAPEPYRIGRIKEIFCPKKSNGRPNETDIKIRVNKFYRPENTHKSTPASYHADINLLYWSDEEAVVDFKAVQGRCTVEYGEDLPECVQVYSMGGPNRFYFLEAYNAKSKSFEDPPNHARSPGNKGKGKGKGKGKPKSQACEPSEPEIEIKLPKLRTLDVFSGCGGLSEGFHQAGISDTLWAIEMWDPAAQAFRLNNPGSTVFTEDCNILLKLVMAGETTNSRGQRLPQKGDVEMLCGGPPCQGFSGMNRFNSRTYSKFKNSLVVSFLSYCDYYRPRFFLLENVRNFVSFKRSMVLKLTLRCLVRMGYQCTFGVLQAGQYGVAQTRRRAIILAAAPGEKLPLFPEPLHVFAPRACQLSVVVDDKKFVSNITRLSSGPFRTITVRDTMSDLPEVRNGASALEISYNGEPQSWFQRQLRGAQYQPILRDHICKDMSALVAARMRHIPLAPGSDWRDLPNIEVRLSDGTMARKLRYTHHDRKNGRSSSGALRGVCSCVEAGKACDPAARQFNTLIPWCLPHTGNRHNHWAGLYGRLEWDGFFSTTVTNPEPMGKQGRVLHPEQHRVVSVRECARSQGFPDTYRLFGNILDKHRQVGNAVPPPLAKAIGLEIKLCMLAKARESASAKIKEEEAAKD

SMILES: CN1CCC(Nc2nc(-c3ccc(F)nc3)nc3c2ccn3CCCN2CCCC2)CC1
IC50 (MV4-11): 3.87 µM | clearance [1]: 45 mL/min/kg | IC50 [2]: 3.13 µM | CL/F [3]: 1050 mL/min/kg | Vd [4]: 33.8 L/kg | IC50 (U-937): 2.61 µM | AUC(0-t) at 24 h [5]: 116 ng·h/mL | half-life [6]: 3.5 h | inhibition [7]: 72% | Cmax [8]: 436 ng/mL | Vdss [9]: 303.6 L/kg | Cmax [10]: 17.3 ng/mL | IC50 [11]: > 20 µM | inhibition [12]: 4.2% | inhibition [13]: 6.8% | half-life [14]: 7.8 h | bioavailability [15]: 6.5% | AUC(0-t) at 24 h [16]: 2080 ng·h/mL

SMILES: Nc1cc(F)ccc1NC(=O)c1ccc(CNC(=O)/C=C/c2cccnc2)cc1 [TUCIDINOSTAT]
Activity [17]: -2.3% | Activity [18]: 51.5% | Activity [19]: 61% | Activity [20]: 2.5%

SMILES: Cc1cc(Nc2ccc(NC(=O)c3ccc(Nc4ccnc5ccccc45)cc3)cc2)nc(N)n1
IC50 (MV4-11): 0.98 µM | IC50 (HT-29): 0.49 µM | IC50 (U-937): 4.12 µM | inhibition [7]: 3.4% | IC50 (HeLa): 21.6 µM | IC50 (HepG2): 11.6 µM | IC50 (MOLM-13): 1.19 µM | IC50 (NCI-H1299): 12.2 µM | IC50 (RPMI-8226): 1.34 µM | IC50 (A549): 9.5 µM | IC50 [11]: 1.91 µM | IC50 (MDA-MB-231): 5.39 µM | inhibition [21]: 77% | IC50 (THP-1): 2.47 µM | IC50 (HCT-116): 0.82 µM

Further lines, with some results ahead:

IC50 (MV4-11): 24.4 µM | inhibition [21]: 41%
SMILES: CN1CCN(c2cc(NCC3CCN(C(=O)C(C)(C)C)CC3)c3cnn(CCCN4CCOCC4)c3c2)CC1

IC50 (Jurkat): 0.41 µM | inhibition [22]: Active | inhibition [23]: Dose-dependent-effect | inhibition [24]: Dose-dependent-effect
SMILES: COc1cc2c(NC3CCN(C)CC3)cc(-c3ccc(C)o3)nc2cc1OCCCN1CCCC1
IC50 (U2932): 2.13 µM | IC50 (DOHH-2): 0.23 µM | IC50 (TMD8): 0.19 µM

IC50 (MV4-11): 10.2 µM | IC50 [2]: 18.3 µM | IC50 [25]: 1.9 µM | IC50 (U-937): 4.53 µM | inhibition [7]: 49% | IC50 [26]: > 20 µM | inhibition [27]: 1.2% | IC50 [11]: > 20 µM | inhibition [12]: 1% | inhibition [13]: 15%
SMILES: COc1ccc(-c2nc(NC3CCN(C)CC3)c3ccn(CCCN4CCCC4)c3n2)cn1
